We go through 9 substances from patent US8470963B2, “Multifunctional compounds for pharmaceutical purposes” (Sku Asset Management GmbH, priority 2006, dated 2013).

The target in test [1] is Her-2 (human ErbB-2) (Homo sapiens, UniProt P04626). The conditions noted are these: target Her-2 (human ErbB-2); Karasseva et al, 2002; read-out: Affinity (kD); cited from earlier work.
The target of test [2] is FGF receptor. The conditions noted are these: target FGF receptor; if multivalent; Maruta et al, 2002; read-out: Affinity (kD); cited from earlier work.
The test system of test [3] is hepatoma cells. In words: Hepatoma solid tumor model in strain 13 guinea pigs: tumor weight and macrophage infiltration. Type of test: in vivo, guinea pig. The conditions noted are these: compared to control Group 1 (PBS); for numbers of esterase-positive cells in tumors (macrophage infiltration): 1 mg per animal ip on day 5, sacrifice on day 15, non-specific esterase stain; for mean tumor weight: 1 mg per animal ip on day 5, tumors excised and weighed on day 15. How it is done: Hepatoma cells are propagated by ip (intraperitoneal) passage in weanling strain 13 male guinea pigs (NIH). Single-cell suspensions are prepared by enzymatic digestion as described. Strain 13 male guinea pigs are injected ip with a suspension of approx. 2*10^6 hepatoma cells to produce solid tumors (day 1). Animals are grouped into 4 groups (six animals each) and are given ip injections on day 5: Phosphate-buffered saline (PBS) (Group 1; control); 1 mg peptide NH2-AWYPLPP-COOH per animal (Group 2; binder only); 1 mg peptide fMLP-COOH per animal (Group 3; effector only); 1 mg compound fMLPK-(NH2-AWYPLPP)-GGGK-(NH2-AWYPLPP)-1-COOH per animal (Group 4). Animals are sacrificed on day 15 and tumors are excised and weighed. In addition macrophage infiltration of tumors is evaluated. Therefore, tumors are fixed in phosphate-buffered formalin and embedded in paraffin blocks. Sections (5 μm) are cut and stained for non-specific esterase activity. Esterase-positive cells are quantified with an image analyser (Optomax, Inc.).

Test [4] has as its system human neuroblastoma cells WAC 2; breast cancer cells MDA-MB-435. The conditions noted are these: WAC 2 neuroblastoma cells; MDA-MB-435 breast cancer cells; Askoxylakis et al; read-out: Affinity (kD); cited from earlier work.
Test [5] concerns the target Glucose-regulated protein 78 (GRP78) (Homo sapiens, UniProt P11021). The conditions noted are these: target GRP78; Arap et al, 2004; read-out: Affinity (kD); cited from earlier work.
For test [6], the target named is EGFR (Homo sapiens, UniProt P00533). The conditions noted are these: target EGFR; Li et al 2005; read-out: Affinity (kD); cited from earlier work.
For test [7], the target named is EGFRvIII (Homo sapiens, UniProt P00533, DELINS30-297G). The conditions noted are these: target EGFRvIII; Campa et al 2002; read-out: Affinity (kD); cited from earlier work.

Glucose-regulated protein 78 (GRP78), sequence (P11021 19-654, species assumed): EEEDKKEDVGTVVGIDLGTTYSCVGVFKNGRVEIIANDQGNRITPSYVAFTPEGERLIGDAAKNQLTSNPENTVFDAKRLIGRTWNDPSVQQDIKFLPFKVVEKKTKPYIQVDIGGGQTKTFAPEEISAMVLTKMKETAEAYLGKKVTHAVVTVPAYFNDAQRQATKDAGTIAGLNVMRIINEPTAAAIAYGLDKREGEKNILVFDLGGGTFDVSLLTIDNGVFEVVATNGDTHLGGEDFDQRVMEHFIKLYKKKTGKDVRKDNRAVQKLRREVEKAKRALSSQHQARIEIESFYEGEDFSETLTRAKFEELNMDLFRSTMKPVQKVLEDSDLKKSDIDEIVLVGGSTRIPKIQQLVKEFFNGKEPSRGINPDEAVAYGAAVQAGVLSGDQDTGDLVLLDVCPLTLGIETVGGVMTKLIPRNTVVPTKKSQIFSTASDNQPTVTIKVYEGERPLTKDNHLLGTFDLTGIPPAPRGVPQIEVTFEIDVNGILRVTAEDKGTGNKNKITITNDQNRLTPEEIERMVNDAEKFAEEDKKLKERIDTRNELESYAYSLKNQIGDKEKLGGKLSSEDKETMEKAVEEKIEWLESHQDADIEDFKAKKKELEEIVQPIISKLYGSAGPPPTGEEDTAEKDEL

By Kd is commonly meant the concentration at which binding is half-saturated. For the substance KCCYSL, the Kd in test [1] was 30000 nM.
Take MQLPLAT: the equilibrium dissociation constant (Kd) in test [2] is 0.25 nM.
Regarding “NH2-AWYPLPP-COOH (H-AWYPLPP-OH) [binder]”, in test [3], the “numbers of esterase-positive cells in tumors (macrophage infiltration)” value is on record as “comparable to Group 1” and the mean tumor weight entry is listed as “no or only marginal effect”.
In the case of VPWMEPAYQRFL, in test [4], the dissociation constant (Kd) is 600 nM.
Turning to WDLAWMFRLPVG, the dissociation constant (Kd) in test [5] was 5 to 50 nM.
As to WIFPWIQL, the dissociation constant (Kd) in test [5] is 5 to 50 nM.
Take YHWYGYTPQNVI: the Kd in test [6] is 22 nM; in test [7] it was 30 nM.
As for fMLP-COOH [effector], in test [3], the “numbers of esterase-positive cells in tumors (macrophage infiltration)” value is “slightly increased” and the mean tumor weight result is “no or only marginal effect”.
In the same order, the values of “fMLPK-(NH2-AWYPLPP)-GGGK-(NH2-AWYPLPP)-I-COOH [compound]” are “significantly increased” and “significantly decreased”.
